{
  "source": "patent US11267795B2",
  "about": "“Crystalline PPAR-delta agonist” (Reneo Pharmaceuticals, Inc., priority 2020, dated 2022)",
  "key": {"[1]": {"experiment": "Gravimetric Vapor Sorption (GVS) with XRPD re-analysis", "format": "physicochemical", "settings": "for Reversible Water Uptake between 0-90% RH: GVS, 25° C.; for Solid State Form After GVS (XRPD): after isotherm experiment at 90% RH and 25° C.", "protocol": "Sorption isotherms were obtained using a SMS DVS Intrinsic moisture sorption analyzer, controlled by DVS Intrinsic Control software. The sample temperature was maintained at 25° C. by the instrument controls. The humidity was controlled by mixing streams of dry and wet nitrogen, with a total flow rate of 200 ml/min. The relative humidity was measured by a calibrated Rotronic probe (dynamic range of 1.0-100% RH), located near the sample. The weight change, (mass relaxation) of the sample as a function of % RH was constantly monitored by a microbalance (accuracy ±0.005 mg).\nTypically, 5-30 mg of sample was placed in a tared mesh stainless steel basket under ambient conditions. The sample was loaded and unloaded at 40% RH and 25° C. (typical room conditions). A moisture sorption isotherm was performed as outlined below (2 scans per complete cycle). The standard isotherm was performed at 25° C. at 10% RH intervals over a 0-90% RH range. Typically, a double cycle (4 scans) was carried out. Data analysis was carried out within Microsoft Excel using the DVS Analysis Suite.\nThe method for SMS DVS Intrinsic experiments is outlined in the following table:\nReversible water uptake for the crystalline forms and patterns as determined by Gravimetric Vapor Sorption (GVS) are as described in the following table:\nThe samples were recovered after completion of the isotherm experiment at […] and 25° C. and re-analyzed by XRPD."}, "[2]": {"experiment": "Stability of solid forms on drying, vacuum or standing (XRPD)", "format": "physicochemical", "protocol": "Crystalline Hydrate Form 2 of Compound II was portioned into two and half was placed in the vacuum oven at RT. After 24 h the sample was analyzed by XRPD. Some small differences between the XRPD pattern and the Form 2 reference were noted. After 4 days in the vacuum oven complete conversion was observed."}, "[3]": {"experiment": "Variable temperature XRPD (heating)", "format": "physicochemical", "settings": "heating to 110° C.", "protocol": "For variable temperature (VT-XRPD) experiments the samples were prepared and analyzed in an Anton Paar chromed sample holder. A heating/cooling rate of 10° C./min was used with a 2 min isothermal hold before the measurement started. The measurement parameters are as per the standard screening data collection method (detailed above). Measurements were taken at the following temperatures: […]"}, "[4]": {"experiment": "Stability of solid state forms under static storage, re-analysed by XRPD", "format": "physicochemical", "protocol": "Crystalline Form 1 of Compound II (4 g) was placed in a crystallization dish and stored in a stability chamber at 25° C./97% RH. XRPD analysis was regularly performed to verify the conversion to Form 2. Complete conversion was observed after 4 weeks at 25° C./97% RH.\nSamples were assessed for stability under ambient or static storage conditions of 25° C./97% RH and 40° C./75% RH for 7 or 10 days. The samples were then re-analyzed by XRPD.\nResults of the subsequent XRPD analysis for the crystalline forms are described in the following table: […]"}, "[5]": {"test_system": "mice", "settings": "cited from earlier work"}},
  "note": "Marks after values point to notes of the source that are not given here.",
  "data": [
    {"compound": "Cc1cc(OC/C=C(/c2ccc(F)cc2)c2ccc(C#CCN3CCOCC3)cc2)ccc1OCC(=O)[O-].[Na+]", "note": "[Pattern 9, sodium (E)-2-(4-((3-(4-fluorophenyl)-3-(4-(3-morpholinoprop-1-yn-1-yl)phenyl)allyl)oxy)-2-methylphenoxy)acetate]", "values": [
      {"measurement": "Reversible Water Uptake between 0-90% RH", "setting": "[1]", "value": "~27", "unit": "%"},
      {"measurement": "Solid State Form After GVS (XRPD)", "setting": "[1]", "value": "Unchanged (Pattern 9)"}
    ]},
    {"compound": "Cc1cc(OC/C=C(/c2ccc(F)cc2)c2ccc(C#CCN3CCOCC3)cc2)ccc1OCC(=O)[O-].[Na+]", "note": "[Form 5, sodium (E)-2-(4-((3-(4-fluorophenyl)-3-(4-(3-morpholinoprop-1-yn-1-yl)phenyl)allyl)oxy)-2-methylphenoxy)acetate]", "values": [
      {"measurement": "solid form stability on drying", "setting": "[2]", "value": "converts to Form 1"},
      {"measurement": "Reversible Water Uptake between 0-90% RH", "setting": "[1]", "value": "~11", "unit": "%"},
      {"measurement": "Solid State Form After GVS (XRPD)", "setting": "[1]", "value": "Form 1"}
    ]},
    {"compound": "Cc1cc(OC/C=C(/c2ccc(F)cc2)c2ccc(C#CCN3CCOCC3)cc2)ccc1OCC(=O)[O-].[Na+]", "note": "[Pattern 8, sodium (E)-2-(4-((3-(4-fluorophenyl)-3-(4-(3-morpholinoprop-1-yn-1-yl)phenyl)allyl)oxy)-2-methylphenoxy)acetate]", "values": [
      {"measurement": "solid form stability on drying", "setting": "[2]", "value": "converts to Form 1"}
    ]},
    {"compound": "Cc1cc(OC/C=C(/c2ccc(F)cc2)c2ccc(C#CCN3CCOCC3)cc2)ccc1OCC(=O)[O-].[Na+]", "note": "[Form 4, sodium (E)-2-(4-((3-(4-fluorophenyl)-3-(4-(3-morpholinoprop-1-yn-1-yl)phenyl)allyl)oxy)-2-methylphenoxy)acetate]", "values": [
      {"measurement": "Reversible Water Uptake between 0-90% RH", "setting": "[1]", "value": "~23", "unit": "%"},
      {"measurement": "Solid State Form After GVS (XRPD)", "setting": "[1]", "value": "Form 2"},
      {"measurement": "XRPD after heating", "setting": "[3]", "value": "unchanged XRPD"},
      {"measurement": "solid state form by XRPD after storage", "setting": "[4]; 25° C./97% RH/7 days", "value": "Form 2"},
      {"measurement": "solid state form by XRPD after storage", "setting": "[4]; 40° C./75% RH/7 days", "value": "Form 1"}
    ]},
    {"compound": "Cc1cc(OC/C=C(/c2ccc(F)cc2)c2ccc(C#CCN3CCOCC3)cc2)ccc1OCC(=O)[O-].[Na+]", "note": "[Form 3, sodium (E)-2-(4-((3-(4-fluorophenyl)-3-(4-(3-morpholinoprop-1-yn-1-yl)phenyl)allyl)oxy)-2-methylphenoxy)acetate]", "values": [
      {"measurement": "solid form stability on drying", "setting": "[2]", "value": "converts to Form 1"},
      {"measurement": "solid form stability on standing", "setting": "[2]; standing in ambient conditions", "value": "converts to Form 1"},
      {"measurement": "Reversible Water Uptake between 0-90% RH", "setting": "[1]", "value": "~9.0", "unit": "%"},
      {"measurement": "Solid State Form After GVS (XRPD)", "setting": "[1]", "value": "Form 1"},
      {"measurement": "solid state form by XRPD after storage", "setting": "[4]; 40° C./75% RH/7 days", "value": "Form 1"}
    ]},
    {"compound": "Cc1cc(OC/C=C(/c2ccc(F)cc2)c2ccc(C#CCN3CCOCC3)cc2)ccc1OCC(=O)[O-].[Na+]", "note": "[Form 2, sodium (E)-2-(4-((3-(4-fluorophenyl)-3-(4-(3-morpholinoprop-1-yn-1-yl)phenyl)allyl)oxy)-2-methylphenoxy)acetate]", "values": [
      {"measurement": "time to complete conversion to Pattern 9", "setting": "[2]; vacuum oven at RT", "value": 4, "unit": "days"},
      {"measurement": "Reversible Water Uptake between 0-90% RH", "setting": "[1]", "value": "~25", "unit": "%"},
      {"measurement": "Solid State Form After GVS (XRPD)", "setting": "[1]", "value": "Unchanged (Form 2)"},
      {"measurement": "solid state form by XRPD after storage", "setting": "[4]; 25° C./97% RH/7 days", "value": "Unchanged (Form 2)"},
      {"measurement": "solid state form by XRPD after storage", "setting": "[4]; 40° C./75% RH/7 days", "value": "Unchanged (Form 2)"}
    ]},
    {"compound": "Cc1cc(OC/C=C(/c2ccc(F)cc2)c2ccc(C#CCN3CCOCC3)cc2)ccc1OCC(=O)[O-].[Na+]", "note": "[Pattern 5, sodium (E)-2-(4-((3-(4-fluorophenyl)-3-(4-(3-morpholinoprop-1-yn-1-yl)phenyl)allyl)oxy)-2-methylphenoxy)acetate]", "values": [
      {"measurement": "solid form stability", "setting": "[2]", "value": "unstable"}
    ]},
    {"compound": "Cc1cc(OC/C=C(/c2ccc(F)cc2)c2ccc(C#CCN3CCOCC3)cc2)ccc1OCC(=O)[O-].[Na+]", "note": "[Form 1, sodium (E)-2-(4-((3-(4-fluorophenyl)-3-(4-(3-morpholinoprop-1-yn-1-yl)phenyl)allyl)oxy)-2-methylphenoxy)acetate]", "values": [
      {"measurement": "Reversible Water Uptake between 0-90% RH", "setting": "[1]", "value": "~13.0", "unit": "% †"},
      {"measurement": "Solid State Form After GVS (XRPD)", "setting": "[1]", "value": "Unchanged (Form 1)"},
      {"measurement": "solid state form by XRPD after storage", "setting": "[4]; 25° C./97% RH/7 days", "value": "Form 2"},
      {"measurement": "solid state form by XRPD after storage", "setting": "[4]; 40° C./75% RH/7 days", "value": "Unchanged (Form 1)"},
      {"measurement": "time to complete conversion to Form 2", "setting": "[4]; stability chamber at 25° C./97% RH, 4 g", "value": 4, "unit": "weeks"}
    ]},
    {"compound": "Cc1cc(OC/C=C(/c2ccc(F)cc2)c2ccc(C#CCN3CCOCC3)cc2)ccc1OCC(=O)[O-].[Na+]", "note": "[amorphous, sodium (E)-2-(4-((3-(4-fluorophenyl)-3-(4-(3-morpholinoprop-1-yn-1-yl)phenyl)allyl)oxy)-2-methylphenoxy)acetate]", "values": [
      {"measurement": "change in XRPD after storage", "setting": "[4]; ambient storage conditions for 24 hours, 48 hours, 7 days, or 10 days", "value": "no change"},
      {"measurement": "change in XRPD after storage", "setting": "[4]; static storage of 40° C./75% RH for 10 days", "value": "no change"}
    ]},
    {"compound": "Cc1cc(SCc2sc(-c3ccc(C(F)(F)F)cc3)nc2C)ccc1OCC(=O)O", "note": "[GW1516]", "values": [
      {"measurement": "energy substrate usage", "setting": "[5]; 8 weeks treatment", "value": "a clear shift in energy substrate usage from glucose to fatty acid oxidation"},
      {"measurement": "physical performance", "setting": "[5]; in combination with exercise, 4 weeks", "value": "enhanced physical performance"}
    ]}
  ]
}
